Results from patent US12325703B2, “Fused ring compound as FGFR and VEGFR dual inhibitor” (CGENETECH (SUZHOU, CHINA) CO., LTD., priority 2019, dated 2025).
Where a name gives a salt, the structure may show the parent alone.

Key:
[1] = tested on: human gastric cancer SNU-16 cells expressing FGFR2; assay: Cell activity (proliferation) test of gastric cancer cell line SNU-16, CellTiter-Glo; format: cell-based; details: inhibition of proliferation
Experimental: To test the inhibitory effect of the compounds on the proliferation of human gastric cancer SNU-16 cells expressing FGFR2.
The compounds used in the test were subjected to 3-fold concentration dilution, the concentration starting from 10 μM and subjected to […], resulting in 9 concentrations: 10 μM, 2.50 μM, 0.62 μM, 0.156 μM, 39.1 nM, 9.8 nM, 2.4 nM, 0.61 nM, and 0.15 nM.
(1) Promega CellTiter-Glo luminescent cell viability assay kit (Promega-G7573).
(2) 2104 EnVision multi-tag reader, PerkinElmer.
The inhibition rate of different doses of the compounds would be calculated in the Excel file, and the IC50 data was obtained by parametric curve fitting (GraphPad Software).

[2] = molecular target: T1, human FGFR1 (Homo sapiens, UniProt P11362); assay: 33P isotope-labeled kinase activity test (Reaction Biology Corp), FGFR1; format: biochemical; details: 33P-ATP 5 μM, kinase 1.5 nM, 120 min room temperature
T1 construct: purchased Invitrogen PV3146
T1 sequence (P11362 22-822): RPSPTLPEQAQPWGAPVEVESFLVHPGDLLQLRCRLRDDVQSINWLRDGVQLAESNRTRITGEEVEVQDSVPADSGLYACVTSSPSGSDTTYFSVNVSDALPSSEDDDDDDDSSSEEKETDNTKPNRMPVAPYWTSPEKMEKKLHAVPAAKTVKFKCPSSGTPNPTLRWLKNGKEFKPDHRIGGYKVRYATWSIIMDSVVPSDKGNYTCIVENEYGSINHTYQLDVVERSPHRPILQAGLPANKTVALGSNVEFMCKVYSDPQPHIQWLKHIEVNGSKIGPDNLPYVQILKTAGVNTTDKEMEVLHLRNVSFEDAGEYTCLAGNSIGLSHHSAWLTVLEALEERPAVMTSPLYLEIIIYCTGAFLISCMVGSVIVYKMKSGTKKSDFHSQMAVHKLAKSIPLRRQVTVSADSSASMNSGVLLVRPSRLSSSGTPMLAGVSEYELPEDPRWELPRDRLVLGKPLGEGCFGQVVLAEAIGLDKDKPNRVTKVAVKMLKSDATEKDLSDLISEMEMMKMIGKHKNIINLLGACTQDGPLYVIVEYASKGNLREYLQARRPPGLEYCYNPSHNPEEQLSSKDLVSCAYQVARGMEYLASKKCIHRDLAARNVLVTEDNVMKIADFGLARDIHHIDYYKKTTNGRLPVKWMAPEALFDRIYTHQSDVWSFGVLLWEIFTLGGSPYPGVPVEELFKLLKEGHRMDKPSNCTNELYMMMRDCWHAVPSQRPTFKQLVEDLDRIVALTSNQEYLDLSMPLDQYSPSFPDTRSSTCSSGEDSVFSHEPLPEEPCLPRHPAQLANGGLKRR
Experimental: (§1) The IC50 value was determined using ^33P isotope-labeled kinase activity test (Reaction Biology Corp) to evaluate the inhibitory ability of the compounds to be tested on human FGFR1, FGFR2 and VEGFR2.
(§2) Buffer conditions: 20 mM Hepes (pH 7.5), 10 mM MgCl2, 1 mM EGTA, 0.02% Brij35, 0.02 mg/mL BSA, 0.1 mM Na3VO4, 2 mM DTT, 1% DMSO.
(§3) Test steps: At room temperature, the compounds to be tested were dissolved in DMSO to prepare a 10 mM solution for use. The substrate was dissolved in the newly-prepared buffer, and the kinase to be tested was added thereto and mixed well. The DMSO solution in which the compounds to be tested were dissolved was added to the above-mentioned homogeneous reaction solution using acoustic technology (Echo 550). […] After incubating for 15 minutes, to the reaction solution was added ^33P-ATP (activity: 0.01 μCi/μL, with corresponding concentration listed in Table 10) to start the reaction. […] The kinase activity data was expressed by comparing the kinase activity of the groups containing the compounds to be tested with that of the blank group (containing only DMSO). The IC50 value was obtained by curve fitting using Prism4 software (GraphPad), and the experimental results were shown in Table 11.

[3] = molecular target: T2, human FGFR2 (Homo sapiens, UniProt P21802); assay: 33P isotope-labeled kinase activity test (Reaction Biology Corp), FGFR2; format: biochemical; details: 33P-ATP 5 μM, kinase 0.45 nM, 120 min room temperature
T2 construct: purchased Invitrogen PV3368
T2 sequence (P21802 22-821): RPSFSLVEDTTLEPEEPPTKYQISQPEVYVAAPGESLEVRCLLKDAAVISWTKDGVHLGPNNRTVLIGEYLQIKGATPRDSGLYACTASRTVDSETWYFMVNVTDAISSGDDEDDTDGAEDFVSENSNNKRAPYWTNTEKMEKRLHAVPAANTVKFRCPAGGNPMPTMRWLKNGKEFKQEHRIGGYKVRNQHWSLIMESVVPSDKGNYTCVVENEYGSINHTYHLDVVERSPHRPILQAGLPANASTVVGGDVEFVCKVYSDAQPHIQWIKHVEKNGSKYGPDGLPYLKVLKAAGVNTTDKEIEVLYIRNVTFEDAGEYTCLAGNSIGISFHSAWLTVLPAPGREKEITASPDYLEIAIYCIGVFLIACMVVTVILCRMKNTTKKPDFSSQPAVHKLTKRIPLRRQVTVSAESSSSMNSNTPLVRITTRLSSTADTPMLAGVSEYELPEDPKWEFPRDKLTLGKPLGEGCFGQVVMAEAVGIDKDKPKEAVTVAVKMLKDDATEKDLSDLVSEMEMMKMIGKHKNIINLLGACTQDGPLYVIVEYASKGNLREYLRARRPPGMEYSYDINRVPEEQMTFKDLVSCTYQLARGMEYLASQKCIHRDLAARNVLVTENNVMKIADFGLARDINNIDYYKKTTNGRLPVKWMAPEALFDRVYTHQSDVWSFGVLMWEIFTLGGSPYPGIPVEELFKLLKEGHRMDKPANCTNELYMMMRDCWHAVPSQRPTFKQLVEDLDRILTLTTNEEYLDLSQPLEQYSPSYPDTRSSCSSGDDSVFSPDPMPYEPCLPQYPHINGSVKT
Experimental: as §1, §2, §3

[4] = molecular target: T3, human VEGFR2 (Homo sapiens, UniProt P35968); assay: 33P isotope-labeled kinase activity test (Reaction Biology Corp), VEGFR2; format: biochemical; details: 33P-ATP 20 μM, kinase 1 nM, 120 min room temperature
T3 construct: purchased Invitrogen PR5992C
T3 sequence (P35968 20-1356): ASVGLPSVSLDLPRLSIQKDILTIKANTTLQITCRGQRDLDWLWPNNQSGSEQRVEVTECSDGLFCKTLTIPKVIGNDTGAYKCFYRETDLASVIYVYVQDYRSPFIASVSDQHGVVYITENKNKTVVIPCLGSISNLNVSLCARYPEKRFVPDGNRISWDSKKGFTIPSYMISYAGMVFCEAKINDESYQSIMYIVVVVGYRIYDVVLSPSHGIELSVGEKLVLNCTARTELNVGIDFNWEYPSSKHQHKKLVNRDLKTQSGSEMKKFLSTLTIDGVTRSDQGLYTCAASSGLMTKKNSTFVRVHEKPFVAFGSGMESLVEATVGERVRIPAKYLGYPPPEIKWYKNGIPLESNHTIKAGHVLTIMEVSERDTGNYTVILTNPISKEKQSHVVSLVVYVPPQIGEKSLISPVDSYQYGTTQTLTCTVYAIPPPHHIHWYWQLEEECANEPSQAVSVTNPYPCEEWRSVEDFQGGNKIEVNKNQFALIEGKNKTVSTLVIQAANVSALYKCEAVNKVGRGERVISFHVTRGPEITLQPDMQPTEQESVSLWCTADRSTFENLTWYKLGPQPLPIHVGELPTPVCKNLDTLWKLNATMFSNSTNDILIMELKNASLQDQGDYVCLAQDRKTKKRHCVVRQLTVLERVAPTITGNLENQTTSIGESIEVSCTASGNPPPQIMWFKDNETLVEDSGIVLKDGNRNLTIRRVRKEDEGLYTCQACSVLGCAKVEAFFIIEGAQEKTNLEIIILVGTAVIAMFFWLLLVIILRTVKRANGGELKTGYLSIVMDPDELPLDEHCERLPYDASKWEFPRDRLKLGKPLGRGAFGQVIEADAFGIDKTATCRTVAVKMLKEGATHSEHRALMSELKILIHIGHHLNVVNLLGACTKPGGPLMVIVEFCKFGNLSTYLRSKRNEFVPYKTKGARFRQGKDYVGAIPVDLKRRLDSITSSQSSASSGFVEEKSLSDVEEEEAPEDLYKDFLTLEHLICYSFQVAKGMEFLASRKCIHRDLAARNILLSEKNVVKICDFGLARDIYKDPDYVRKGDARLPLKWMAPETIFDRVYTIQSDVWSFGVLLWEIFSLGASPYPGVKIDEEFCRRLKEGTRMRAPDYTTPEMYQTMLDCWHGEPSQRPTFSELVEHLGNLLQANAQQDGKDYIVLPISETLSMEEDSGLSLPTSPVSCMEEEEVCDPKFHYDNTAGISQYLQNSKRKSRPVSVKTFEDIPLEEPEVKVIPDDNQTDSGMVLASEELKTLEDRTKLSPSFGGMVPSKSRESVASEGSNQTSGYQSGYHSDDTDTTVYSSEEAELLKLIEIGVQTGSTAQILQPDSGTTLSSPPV
Experimental: as §1, §2, §3

Compound | IC50 [3] | other results
Cn1cc(-c2ccc3c(c2)ncn3-c2cc(NS(=O)(=O)C3CC3)cc(-c3ccc(F)cc3F)c2)cn1 [Comparative example 1, reference compound] |  | IC50 [1]: 62 nM
CC(=O)Nc1cc(-c2ccc(F)cc2F)cc(-c2cnn3cc(-c4cnn(C)c4)ccc23)c1 [Compound 3] |  | IC50 [2]: 2.37 nM
CC(C)Nc1cc(-c2ccc(F)cc2F)cc(-c2cnn3cc(-c4cnn(C)c4)ccc23)c1 [Compound 6] |  | IC50 [2]: 17 nM
Cn1cnc(-c2ccc3c(-c4cc(NS(C)(=O)=O)cc(-c5ccc(F)cc5F)c4)cnn3c2)n1 [Compound 7] |  | IC50 [2]: 135 nM
Cn1cc(-c2ccc3c(-c4cc(NS(=O)(=O)C5CC5)cc(-c5ccc(F)nc5F)c4)cnn3c2)cn1 [Compound 8] | 65.3 nM | 
Cn1cc(-c2ccc3c(-c4cc(NS(C)(=O)=O)nc(-c5ccc(F)cc5F)c4)cnn3c2)cn1 [Compound 12] | 3.74 nM | 
CCS(=O)(=O)Nc1cc(-c2cnn3cc(-c4cnn(C)c4)ccc23)cc(-c2ccc(F)cc2F)n1 [Compound 13] | 2.98 nM | 
Cn1cc(-c2ccc3c(-c4cc(NS(=O)(=O)C5CC5)nc(-c5ccc(F)cc5F)c4)cnn3c2)cn1 [Compound 14] |  | IC50 [2]: 10.3 nM
CS(=O)(=O)Nc1cc(-c2ccc(F)cc2F)cc(-c2cnn3cc(-c4ncn(C5CCOCC5)n4)ccc23)c1 [Compound 15] | 287 nM | 
Cc1ncn(-c2ccc3c(-c4cc(NS(=O)(=O)C5CC5)cc(-c5ccc(F)cc5F)c4)cnn3c2)n1 [Compound 16] | 312 nM | 
CCS(=O)(=O)Nc1cc(-c2ccc(F)cc2F)cc(-c2cnn3cc(-n4cnc(C)n4)ccc23)c1 [Compound 17] | 142 nM | 
CS(=O)(=O)Nc1cc(-c2ccc(F)cc2F)cc(-c2cnn3cc(-c4ncn(CCO)n4)ccc23)c1 [Compound 18] | 256 nM | 
Cc1ncn(-c2ccc3c(-c4cc(NS(C)(=O)=O)cc(-c5ccc(F)cc5F)c4)cnn3c2)n1 [Compound 19] | 88.6 nM | 
CS(=O)(=O)Nc1cc(-c2ccc(F)cc2F)cc(-c2cnn3cc(-c4cnn(CC(O)CO)c4)ccc23)c1 (stereo not shown) [Compound 22] | 4.38 nM | IC50 [4]: 1.88 nM; IC50 [1]: 28.5 nM
CONC(=O)Nc1cc(-c2ccc(F)cc2F)cc(-c2cnn3cc(-c4cnn(C)c4)ccc23)c1 [Compound 24] | 10.1 nM | 
Cn1cc(-c2ccc3c(-c4cc(NC(=O)N5CCC(O)C5)cc(-c5ccc(F)cc5F)c4)cnn3c2)cn1 (stereo not shown) [Compound 25] | 40.2 nM | IC50 [4]: 22.4 nM
Cn1cc(-c2ccc3c(-c4cc(NS(C)(=O)=O)cc(-c5ccc(F)cc5F)c4)cnn3c2)nn1 [Compound 26] |  | IC50 [1]: 7.8 nM
Cn1nccc1-c1ccc2c(-c3cc(NS(C)(=O)=O)cc(-c4ccc(F)cc4F)c3)cnn2c1 [Compound 28] | 359 nM | 
CS(=O)(=O)Nc1cc(-c2ncc(F)cc2F)cc(-c2cnn3cc(C4CC4)ccc23)c1 [Compound 35] | 49.2 nM | 
CS(=O)(=O)Nc1cc(-c2ncc(F)cc2F)cc(-c2cnn3cc(-c4cnn(CC5COCCN5Cc5ccccc5)c4)ccc23)c1 (stereo not shown) [Compound 45] | 29.6 nM | IC50 [4]: 11.2 nM
Cn1cc(-c2ccc3c(-c4cc(NCC(C)(C)O)cc(-c5ncc(F)cc5F)c4)cnn3c2)cn1 [Compound 49] | 2.29 nM | 
Cn1cc(-c2ccc3c(-c4cc(NCC5COC(C)(C)O5)cc(-c5ccc(F)cc5F)c4)cnn3c2)cn1 (stereo not shown) [Compound 52] | 6.59 nM | IC50 [4]: 21.4 nM
Cn1cc(-c2ccc3c(-c4cc(NCC(O)CO)cc(-c5ccc(F)cc5F)c4)cnn3c2)cn1 (stereo not shown) [Compound 53] | 5.59 nM | IC50 [4]: 3.63 nM
Cn1cc(-c2ccc3c(-c4cc(NCC(C)(C)O)cc(-c5ccc(F)cc5F)c4)cnn3c2)cn1 [Compound 54] | 10.6 nM | 
Cn1cc(-c2ccc3c(-c4cc(NS(=O)(=O)C5CC5)cc(-c5ccc(F)nc5)c4)cnn3c2)cn1 [Trifluoroacetate salt of compound 9] | 73.3 nM | 
Cn1cc(-c2ccc3c(-c4cc(NS(=O)(=O)C5CC5)cc(-c5cccnc5F)c4)cnn3c2)cn1 [Trifluoroacetate salt of compound 10] | 36.5 nM | 
Cn1cc(-c2ccc3c(-c4cc(NS(C)(=O)=O)cc(-c5ccc(F)cc5F)c4)cnn3c2)nn1 [Trifluoroacetate salt of compound 26] | 1.98 nM | IC50 [4]: 2.74 nM
Cn1cnc(-c2ccc3c(-c4cc(NS(C)(=O)=O)cc(-c5ccc(F)cc5F)c4)cnn3c2)c1 [Trifluoroacetate salt of compound 27] | 2.55 nM | IC50 [1]: 11.5 nM
CS(=O)(=O)Nc1cc(-c2cnn3cc(-c4cnn(CCN5CCOCC5)c4)ccc23)cc(-c2ccc(F)cc2F)n1 [Trifluoroacetate salt of compound 29] | 3.98 nM | 

Continued by falling IC50 [3], values first:

IC50 [3] | Compound | other results
1.88 nM | Cn1cc(-c2ccc3c(-c4cc(NC(=O)NC5CC5)cc(-c5ccc(F)cc5F)c4)cnn3c2)cn1 [Compound 23] | 
1.81 nM | Cn1cc(-c2ccc3c(-c4cc(-c5ccc(F)cc5F)cc(NS(C)(=O)=O)n4)cnn3c2)cn1 [Compound 41] | 
1.79 nM | CC(C)(O)Cn1cc(-c2ccc3c(-c4cc(NS(C)(=O)=O)cc(-c5ncc(F)cc5F)c4)cnn3c2)cn1 [Compound 31] | 
1.27 nM | O=S(=O)(Nc1cc(-c2ccc(F)cc2F)cc(-c2cnn3cc(-c4cnn(C5CCNCC5)c4)ccc23)c1)C1CC1 [Hydrochloride salt of compound 51] | 
1.21 nM | CCS(=O)(=O)Nc1cc(-c2ncc(F)cc2F)cc(-c2cnn3cc(-c4cnn(C)c4)ccc23)c1 [Trifluoroacetate salt of compound 33] | IC50 [1]: 6.2 nM
1.09 nM | Cn1cc(-c2ccc3c(-c4cc(NS(C)(=O)=O)cc(-c5ncc(F)cc5F)c4)cnn3c2)cn1 [Trifluoroacetate salt of compound 32] | 
1.06 nM | Cn1cc(-c2ccc3c(-c4cc(-c5ccc(F)cc5F)cc(NS(=O)(=O)C5CC5)n4)cnn3c2)cn1 [Compound 42] | 
1.05 nM | Cn1cc(-c2ccc3c(-c4cc(NCC(O)CO)cc(-c5ncc(F)cc5F)c4)cnn3c2)cn1 (stereo not shown) [Compound 50] | IC50 [4]: 3.82 nM
0.95 nM | CS(=O)(=O)Nc1cc(-c2ncc(F)cc2F)cc(-c2cnn3cc(-c4cnn(CC5COCCO5)c4)ccc23)c1 (stereo not shown) [Compound 39] | IC50 [4]: 0.66 nM
0.95 nM | Cn1cc(-c2ccc3c(-c4cc(NCC5COC(C)(C)O5)cc(-c5ncc(F)cc5F)c4)cnn3c2)cn1 (stereo not shown) [Compound 48] | IC50 [4]: 8.39 nM
0.77 nM | CS(=O)(=O)CCCn1cc(-c2ccc3c(-c4cc(NS(C)(=O)=O)cc(-c5ncc(F)cc5F)c4)cnn3c2)cn1 [Compound 40] | IC50 [4]: 1.99 nM
0.76 nM | Cn1cc(-c2ccc3c(-c4cc(NS(=O)(=O)C5CC5)cc(-c5ncc(F)cc5F)c4)cnn3c2)cn1 [Trifluoroacetate salt of compound 11] | IC50 [4]: 0.6 nM; IC50 [1]: 10.5 nM
0.72 nM | CS(=O)(=O)Nc1cc(-c2ncc(F)cc2F)cc(-c2cnn3cc(-c4cnn(CCN5CCOCC5)c4)ccc23)c1 [Compound 38] | 
0.72 nM | CS(=O)(=O)Nc1cc(-c2ncc(F)cc2F)cc(-c2cnn3cc(-c4cnn(CC5COCCN5)c4)ccc23)c1 (stereo not shown) [Compound 44] | IC50 [4]: 1.4 nM
0.57 nM | CS(=O)(=O)Nc1cc(-c2ccc(F)cc2F)cc(-c2cnn3cc(-c4cnn(C5CCNCC5)c4)ccc23)c1 [Hydrochloride salt of compound 21] | IC50 [1]: 9.6 nM
0.47 nM | CCS(=O)(=O)Nc1cc(-c2ccc(F)cc2F)cc(-c2cnn3cc(-c4cnn(C)c4)ccc23)n1 [Compound 43] | 
0.45 nM | O=S(=O)(Nc1cc(-c2ncc(F)cc2F)cc(-c2cnn3cc(-c4cnn(C5CCNCC5)c4)ccc23)c1)C1CC1 [Hydrochloride salt of compound 47] | 
0.42 nM | CS(=O)(=O)Nc1cc(-c2ncc(F)cc2F)cc(-c2cnn3cc(-c4cnn(CC(O)CO)c4)ccc23)c1 (stereo not shown) [Compound 34] | IC50 [4]: 0.29 nM
0.3 nM | CN1CCC(n2cc(-c3ccc4c(-c5cc(NS(C)(=O)=O)cc(-c6ccc(F)cc6F)c5)cnn4c3)cn2)CC1 [Compound 30] | 
0.23 nM | CN(C)CCn1cc(-c2ccc3c(-c4cc(NS(C)(=O)=O)cc(-c5ccc(F)cc5F)c4)cnn3c2)cn1 [Compound 20] | IC50 [1]: 7.5 nM
0.23 nM | CN1CCC(n2cc(-c3ccc4c(-c5cc(NS(C)(=O)=O)cc(-c6ncc(F)cc6F)c5)cnn4c3)cn2)CC1 [Compound 36] | 
0.18 nM | CS(=O)(=O)Nc1cc(-c2ncc(F)cc2F)cc(-c2cnn3cc(-c4cnn(C5CCNCC5)c4)ccc23)c1 [Hydrochloride salt of compound 37] | 
